Data set [1] concerns IBV (B/Ned/537/05). The data set is described as follows: CPE reduction assay in MDCK cells, influenza B virus. Type of data set: cell-based.
For data set [2], the system named is A/H1N1 (strain A/Ned/378/05). The data set is described as follows: CPE reduction assay in MDCK cells, influenza A/H1N1. It is filed as cell-based. Particulars: Influenza A virus.
The test system of data set [3] is A/H3N2 (A/HK/7/87). The data set can be described thus: microbe, parasite or virus in culture. Type of data set: cell-based, influenza A virus. Particulars: for EC50: Influenza A virus, H3N2, MDCK; for anti-A/H3N2 activity (in words): MDCK cells.
A short description of data set [4]: in vitro. Particulars: dog.
Setting [5] is: read-out: Antiviral EC50 IBV CPE.
The mark [6] stands for this setting: read-out: Antiviral EC50 IBV MTS.
The mark [7] stands for this setting: read-out: Antiviral EC50 A/H1N1 CPE.
[8] abbreviates: read-out: Antiviral EC50 A/H1N1 MTS.
Where [9] appears, read: read-out: Antiviral EC50 A/H3N2 CPE.
Setting [10] is: read-out: Antiviral EC50 A/H3N2 MTS.

We go through 15 molecules from paper PMC11931604 (Drug Development Research, 2025).

Entries after “also recorded” stand apart in the source; their conditions may differ. Like-named read-outs stand apart in the source and are kept apart here.

Turning to `CC(C)(C)c1ccc(C(=O)NN2C(=O)CSC23CCCCC3)cc1` [Compound 1a, 4‐(tert‐Butyl)‐N‐(3‐oxo‐1‐thia‐4‐azaspiro[4.5]decan‐4‐yl)benzamide], the EC50 in data set [1] (setting [5]), in data set [1] (setting [6]), in data set [2] (setting [7]), in data set [2] (setting [8]), in data set [3] (setting [9]) and in data set [3] (setting [10]) was greater than 100 µM throughout. In addition, the CC50 in data set [4] was greater than 100 µM.
On to `CC1CCCC2(C1)SCC(=O)N2NC(=O)c1ccc(C(C)(C)C)cc1` (stereo not drawn) [Compound 1b, 4‐(tert‐Butyl)‐N‐(7‐methyl‐3‐oxo‐1‐thia‐4‐azaspiro[4.5]decan‐4‐yl)benzamide], for which the EC50 in data set [1] (setting [5]), in data set [1] (setting [6]), in data set [2] (setting [7]), in data set [2] (setting [8]), in data set [3] (setting [9]) and in data set [3] (setting [10]) was greater than 100 µM each time. The CC50 in data set [4] worked out at 11 µM.
With `CC1CCC2(CC1)SCC(=O)N2NC(=O)c1ccc(C(C)(C)C)cc1` (stereo not drawn) [Compound 1c, 4‐(tert‐Butyl)‐N‐(8‐methyl‐3‐oxo‐1‐thia‐4‐azaspiro[4.5]decan‐4‐yl)benzamide], the EC50 in data set [1] (setting [5]), in data set [1] (setting [6]), in data set [2] (setting [7]), in data set [2] (setting [8]), in data set [3] (setting [9]) and in data set [3] (setting [10]) was greater than 100 µM throughout. For the same molecule, in data set [3], the “anti-A/H3N2 activity (in words)” value is “inactive; also recorded: lacks anti‐A/H3N2 activity”. This molecule had a CC50 in data set [4] greater than 100 µM.
In the case of `CCC1CCC2(CC1)SCC(=O)N2NC(=O)c1ccc(C(C)(C)C)cc1` (stereo not drawn) [Compound 1d, 4‐(tert‐Butyl)‐N‐(8‐ethyl‐3‐oxo‐1‐thia‐4‐azaspiro[4.5]decan‐4‐yl)benzamide], the EC50 in data set [1] (setting [5]), in data set [1] (setting [6]), in data set [2] (setting [7]), in data set [2] (setting [8]), in data set [3] (setting [9]) and in data set [3] (setting [10]) was greater than 100 µM throughout. The CC50 in data set [4] was greater than 100 µM.
As to `CCCC1CCC2(CC1)SCC(=O)N2NC(=O)c1ccc(C(C)(C)C)cc1` (stereo not drawn) [Compound 1e, 4‐(tert‐Butyl)‐N‐(3‐oxo‐8‐propyl‐1‐thia‐4‐azaspiro[4.5]decan‐4‐yl)benzamide], the EC50 in data set [1] (setting [5]), in data set [1] (setting [6]), in data set [2] (setting [7]), in data set [2] (setting [8]), in data set [3] (setting [9]) and in data set [3] (setting [10]) was greater than 100 µM each time. This molecule also came in with a CC50 in data set [4] greater than 100 µM.
Turning to `CC(C)(C)c1ccc(C(=O)NN2C(=O)CSC23CCC(C(C)(C)C)CC3)cc1` (stereo not drawn) [Compound 1f, 4‐(tert‐Butyl)‐N‐(8‐(tert‐butyl)‐3‐oxo‐1‐thia‐4‐azaspiro[4.5]decan‐4‐yl)benzamide], the EC50 in data set [1] (setting [5]), in data set [1] (setting [6]), in data set [2] (setting [7]), in data set [2] (setting [8]), in data set [3] (setting [9]) and in data set [3] (setting [10]) was greater than 100 µM each time. In addition, the CC50 in data set [4] was greater than 100 µM.
Regarding `CC1SC2(CCCCC2)N(NC(=O)c2ccc(C(C)(C)C)cc2)C1=O` (stereo not drawn) [Compound 2a, 4‐(tert‐Butyl)‐N‐(2‐methyl‐3‐oxo‐1‐thia‐4‐azaspiro[4.5]decan‐4‐yl)benzamide], the EC50 in data set [1] (setting [5]), in data set [1] (setting [6]), in data set [2] (setting [7]), in data set [2] (setting [8]), in data set [3] (setting [9]) and in data set [3] (setting [10]) was greater than 100 µM throughout. In addition, the “anti-A/H3N2 activity (in words)” value in data set [3] is listed as “devoid of antiviral activity”. The molecule further displayed a CC50 in data set [4] of 92 µM.
For `CC1CCCC2(C1)SC(C)C(=O)N2NC(=O)c1ccc(C(C)(C)C)cc1` (stereo not drawn) [Compound 2b, 4‐(tert‐Butyl)‐N‐(2,7‐dimethyl‐3‐oxo‐1‐thia‐4‐azaspiro[4.5]decan‐4‐yl)benzamide], the EC50 in data set [1] (setting [5]), in data set [1] (setting [6]), in data set [2] (setting [7]), in data set [2] (setting [8]), in data set [3] (setting [9]) and in data set [3] (setting [10]) was greater than 100 µM each time. The “anti-A/H3N2 activity (in words)” value in data set [3] is on record as “devoid of antiviral activity”. In data set [4], the CC50 is 78 µM.
For the molecule `CC1CCC2(CC1)SC(C)C(=O)N2NC(=O)c1ccc(C(C)(C)C)cc1` (stereo not drawn) [Compound 2c, 4‐(tert‐Butyl)‐N‐(2,8‐dimethyl‐3‐oxo‐1‐thia‐4‐azaspiro[4.5]decan‐4‐yl)benzamide], the EC50 in data set [1] (setting [5]) is greater than 100 µM; in data set [1] (setting [6]) it was greater than 100 µM; in data set [2] (setting [7]), greater than 100 µM; in data set [2] (setting [8]), greater than 100 µM; in data set [3] (setting [9]), 2.4 ± 0.8 µM; in data set [3] (setting [10]), 1.3 ± 0.3 µM. The same molecule yielded a CC50 in data set [4] of 39 ± 25 µM.
In the case of `CCC1CCC2(CC1)SC(C)C(=O)N2NC(=O)c1ccc(C(C)(C)C)cc1` (stereo not drawn) [Compound 2d, 4‐(tert‐Butyl)‐N‐(8‐ethyl‐2‐methyl‐3‐oxo‐1‐thia‐4‐azaspiro[4.5]decan‐4‐yl)benzamide], the EC50 in data set [1] (setting [5]), in data set [1] (setting [6]), in data set [2] (setting [7]), in data set [2] (setting [8]), in data set [3] (setting [9]) and in data set [3] (setting [10]) was greater than 100 µM in each case. Further, in data set [4], the CC50 was found to be 13 µM.
In the case of `CCCC1CCC2(CC1)SC(C)C(=O)N2NC(=O)c1ccc(C(C)(C)C)cc1` (stereo not drawn) [Compound 2e, 4‐(tert‐Butyl)‐N‐(2‐methyl‐3‐oxo‐8‐propyl‐1‐thia‐4‐azaspiro[4.5]decan‐4‐yl)benzamide], the EC50 in data set [1] (setting [5]), in data set [1] (setting [6]), in data set [2] (setting [7]), in data set [2] (setting [8]), in data set [3] (setting [9]) and in data set [3] (setting [10]) was greater than 100 µM each time. The CC50 in data set [4] worked out at 14 µM.
Take `CC1SC2(CCC(C(C)(C)C)CC2)N(NC(=O)c2ccc(C(C)(C)C)cc2)C1=O` (stereo not drawn) [Compound 2f, 4‐(tert‐Butyl)‐N‐(8‐(tert‐butyl)‐2‐methyl‐3‐oxo‐1‐thia‐4‐azaspiro[4.5]decan‐4‐yl)benzamide]: the EC50 in data set [1] (setting [5]), in data set [1] (setting [6]), in data set [2] (setting [7]), in data set [2] (setting [8]), in data set [3] (setting [9]) and in data set [3] (setting [10]) was greater than 100 µM in each case. The molecule further displayed a CC50 in data set [4] greater than 100 µM.
In the case of `CCC(CC)O[C@@H]1C=C(C(=O)O)C[C@H](N)[C@H]1NC(C)=O` [Oseltamivir carboxylate, reference compound], the EC50 in data set [1] (setting [5]) was 0.8 µM; in data set [1] (setting [6]), 0.6 µM; in data set [2] (setting [7]), 0.5 µM; in data set [2] (setting [8]) it was 0.4 µM; in data set [3] (setting [9]), 0.8 µM; in data set [3] (setting [10]), 0.4 µM. This molecule also yielded a CC50 in data set [4] greater than 100 µM.
Take `NC(=O)c1ncn([C@@H]2O[C@H](CO)[C@@H](O)[C@H]2O)n1` [Ribavirin, reference compound]: the EC50 in data set [1] (setting [5]) came out at 9 µM; in data set [1] (setting [6]) it was 5.3 µM; in data set [2] (setting [7]) it was 8.9 µM; in data set [2] (setting [8]), 7.1 µM; in data set [3] (setting [9]) it was 6.8 µM; in data set [3] (setting [10]) it was 1.3 µM. The CC50 in data set [4] is greater than 100 µM.
As for `CC(N)C12CC3CC(CC(C3)C1)C2` (stereo not drawn) [Rimantadine, reference compound], the EC50 was greater than 200 µM in data set [1] (setting [5]); greater than 200 µM in data set [1] (setting [6]); 8 µM in data set [2] (setting [7]); 8.7 µM in data set [2] (setting [8]); 0.7 µM in data set [3] (setting [9]); 0.8 µM in data set [3] (setting [10]). This molecule had a CC50 in data set [4] greater than 200 µM.
